Data on one molecule can be found in article PMC6243185 (The Korean Journal of Parasitology, 2018).

This assay has as its target T1, AcCP (rAcCP) (Acanthamoeba castellanii, UniProt A1YJR6).
T1 sequence (A1YJR6 44-330): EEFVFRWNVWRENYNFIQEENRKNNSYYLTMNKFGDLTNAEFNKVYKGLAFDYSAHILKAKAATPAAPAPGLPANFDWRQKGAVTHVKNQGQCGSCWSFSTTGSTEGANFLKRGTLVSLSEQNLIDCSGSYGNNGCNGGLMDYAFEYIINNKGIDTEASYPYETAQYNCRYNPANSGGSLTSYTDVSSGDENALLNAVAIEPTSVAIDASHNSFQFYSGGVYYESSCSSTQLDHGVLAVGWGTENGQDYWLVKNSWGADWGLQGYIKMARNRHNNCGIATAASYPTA
Description: inhibition of fluorogenic substrate hydrolysis. As to conditions: fully processed rAcCP; data not shown; covalent. It counts as biochemical.

As for `CC(C)C[C@H](NC(=O)[C@H]1O[C@@H]1C(=O)O)C(=O)NCCCCN=C(N)N` [E-64, trans-epoxy-succinyl-L-leucylamido(4-guanidino)-butane], the “inhibition of fluorogenic substrate hydrolysis; active site titration” value is given as “The fully processed rAcCP was effectively inhibited by a cysteine protease inhibitor, E-64 (data not shown)”.
